Earlier results in patent US8809326B2, “Isoquinolinone Rho kinase inhibitors” (Aerie Pharmaceuticals, Inc., priority 2006, dated 2014).

How the values were obtained:
[1] = porcine, IL-1 beta-induced, long term treatment
[2] = rat stroke model

Compound: O=S(=O)(c1cccc2cnccc12)N1CCCNCC1 [fasudil]
- coronary constrictive remodeling [1]: promote a regression of coronary constrictive remodeling
- coronary stenosis [1]: progressively reduce coronary stenosis
- infarct size [2]: reduce
- neurologic deficit [2]: reduce
